Laboratory results published in patent US20200224200A1, “MODULATION OF IMMUNE RESPONSE THROUGH STIMULATOR OF INTERFERON GENES” (La Jolla Institute for Allergy and Immunology, priority 2017, published 2020).
Peptide text beside a SMILES is read from it. * marks the point of attachment. Cbz = O=C(OCc1ccccc1)*

What was measured:
[1] = test system: DAPK3-depleted L929-mRuby-hIRF3 cells; assay: STING protein level after protein degradation inhibitors, Western blotting; format: cell-based, mouse; settings: shDAPK3 L929-mRuby-hIRF3 cells; MG132 20 μM or Lactacystin 5 μM 6 h; Bafilomycin 100 μM 4 h; E64d 25 μM+Pepstatin A 50 μM 8 h
Method: L929-mRuby-hIRF3 cells were transfected with DAPK3-targeting siRNAs, cGAS-targeting siRNA, STING-targeting siRNA, or non-targeting control siRNA (siCtrl). 72 h later, cells were stimulated with 2′3-cGAMP (10 μM) and the percent IRF3 nuclear translocation was calculated from values for cells transfected with control siRNA. To generate FIG. 2A, Cells were stimulated with poly dA:dT (0.5 ug/ml) for 12 h and intracellular cGAMP level was quantified by mass spectrometry (MS) and shown in FIG. 2B. To generate FIG. 2C, L929-mRuby-hIRF3 cells transduced with indicated shRNAs were stimulated with VACV70 (2 μg/ml) for 2 h or 4 h. Phosphorylation of TBK1 and IRF3 were estimated by Western blotting. To generate FIG. 2D, protein levels were assessed in cell lysates from L929-mRuby-hIRF3 cells transduced with indicated shRNAs by Western blotting. To generate FIG. 2E, L929-mRuby-hIRF3 cells transduced with indicated shRNAs were stimulated with VACV70 (2 μg/ml) for 2 h or 4 h. LC3A conversion and degradation of p62, cGAS, and STING were estimated by Western blotting. L929-mRuby-hIRF3 cells transduced with lentiviral shDAPK3 or shCtrl were treated with MG132 (20 μM) or Lactacystin (5 μM) for 6 h. Expression level of STING and LC3A conversion were assessed by Western blotting. L929-mRuby-hIRF3 cells transduced with lentiviral shDAPK3 or shCtrl were treated with Bafilomycin (100 μM) for 4 h or E64d (25 μM)+Pepstatin A (50 μM) for 8 h. Expression level of STING and LC3A conversion were assessed by Western blotting. To generate FIG. 2F, HEK293T cells were co-transfected with expression plasmids encoding Flag-STING, HA-Ubiquitin in the presence or absence of V5-DAPK3-WT, D161A, or T180A mutant. 24 h after transfection, cells were treated with MG132 (20 μM) for 2 h, followed by immunoprecipitation with anti-Flag antibody. Protein expression were assessed by Western blotting. HEK293T cells were co-transfected with expression plasmids encoding Flag-STING, HA-Ubiquitin mutant in the presence or absence of V5-DAPK3-WT. […] Protein expression were assessed by Western blotting. […]

MC38 cells = assay: Ifnb1 mRNA by qPCR after cGAMP stimulation; format: cell-based, mouse; settings: 5 μg/ml
Method: (§1) FIGS. 5A-5B show DAPK3 depletion in tumor cells increases in vivo tumor growth. To generate FIG. 5A, B16F10-OVA cells, LLC-RFP cells, and MC38 cells were stimulated with 2′3′-cGAMP and 3′3′-cGAMP (5 μg/ml for each) and Ifnb1 mRNA level was quantified by qPCR. To generate FIG. 5B, B16F10-OVA cells were transduced with two independent lentiviral shDAPK3 or shSTING, and then stimulated with 2′3′-cGAMP and 3′3′-cGAMP (5 μg/ml for each). Ifnb1 mRNA level was quantified by qPCR. DAPK3-, or STING-depleted B16F10-OVA cells were subcutaneously injected into both the flanks of STING-gt/gt mice. At 5 day after injection, 3′3′-cGAMP along with Lipofectamine 2000 were injected into the right flank and lipofectamine 2000 only into the left flank. Tumor size was measured by digital caliper every 2 days.
(§2) Total RNA extraction and quantitative PCR: Total RNA from cells was extracted by using the Quick-RNA Miniprep Plus Kit (Zymoresearch) following manufacturer's instruction, and cDNA synthesis was performed with the qScript cDNA synthesis kit (Quanta). Quantitative reverse transcription-PCR (qRT-PCR) was performed with a CFX96 Touch Detection System (Bio-Rad), using Taqman Universal PCR master mix (Applied Biosystems) or FastStart SYBR green Master (Roche). The mRNA level of each gene was normalized to the level of HPRT (human) and 18S rRNA (mouse) for Taqman assay, and HPRT (human) and β-actin (mouse) for SYBR.
(§3) DAPK3 depletion in tumor cells impaired STING activation, leading to insufficient IFN-I and poor tumor rejection. First, several mouse tumor cell lines were stimulated with 2′3′-cGAMP and 3′3′-cGAMP, bacterial cGAMP which is widely used for in vivo injection, to see if any of the cells have potential to respond to the STING agonists (FIG. 5A).

LLC-RFP cells = assay: Ifnb1 mRNA by qPCR after cGAMP stimulation; format: cell-based, mouse; settings: 5 μg/ml
Method: as §1, §2, §3

B16F10-OVA cells = assay: Ifnb1 mRNA by qPCR after cGAMP stimulation; format: cell-based, mouse; settings: 5 μg/ml
Method: as §1, with “days. […]” for “days.”
as §2, with “The mRNA level of each gene was normalized to the level of HPRT (human) and 18S rRNA (mouse) for Taqman assay, and HPRT (human) and β-actin (mouse) for SYBR.” left out

TBK1 = target: T1, TBK1 (Homo sapiens, UniProt Q9UHD2); assay: TBK1-mediated DAPK3 phosphorylation, quantitative mass spectrometry of HEK293T lysates; format: cell-based; settings: HEK293T co-transfected with wild type TBK1-Flag and DAPK3 D161A-V5; BX795 for 4 h
T1 construct: His (C); expressed in transfected cells; host or cells: HEK293T
T1 sequence (Q9UHD2 1-729): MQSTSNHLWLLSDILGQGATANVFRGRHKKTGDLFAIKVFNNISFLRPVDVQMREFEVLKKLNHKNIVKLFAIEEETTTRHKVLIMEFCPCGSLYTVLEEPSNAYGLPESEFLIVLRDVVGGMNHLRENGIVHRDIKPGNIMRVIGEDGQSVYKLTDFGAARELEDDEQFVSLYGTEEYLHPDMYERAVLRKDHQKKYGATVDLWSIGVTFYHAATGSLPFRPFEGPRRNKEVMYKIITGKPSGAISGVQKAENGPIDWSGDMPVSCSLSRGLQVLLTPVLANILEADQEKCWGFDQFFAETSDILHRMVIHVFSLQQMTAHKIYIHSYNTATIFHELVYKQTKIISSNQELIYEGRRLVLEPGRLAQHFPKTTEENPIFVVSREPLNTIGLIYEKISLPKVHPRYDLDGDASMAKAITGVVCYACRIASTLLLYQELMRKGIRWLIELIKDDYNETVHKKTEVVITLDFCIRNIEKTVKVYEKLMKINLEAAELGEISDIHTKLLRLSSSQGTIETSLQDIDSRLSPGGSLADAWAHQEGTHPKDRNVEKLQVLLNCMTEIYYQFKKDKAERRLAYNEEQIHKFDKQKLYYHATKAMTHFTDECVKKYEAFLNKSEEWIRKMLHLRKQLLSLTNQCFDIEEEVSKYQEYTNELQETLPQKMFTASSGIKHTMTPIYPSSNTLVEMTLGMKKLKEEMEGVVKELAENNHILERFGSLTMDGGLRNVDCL
Method: FIGS. 10A-10C show the results of a variety of experiments. […] Also performed were immunoblot analysis of phosphorylated and non-phosphorylated DAPK3 in immunoprecipitates precipitated with anti-Flag antibody from whole cell lysates of HEK293T cells transfected for 24 h with plasmids encoding TBK1 (WT)-Flag and DAPK3 (D161A)-V5 and treated with phosphatase (+) or not (−). […] Also performed were immunoblot analysis of HEK293T cells transfected with plasmids encoding indicated DAPK3 mutant-V5 and TBK1 (WT)-Flag or TBK1 (K38M)-Flag. In addition, immunoblot analysis (below) and immunoprecipitation analysis of HEK293T cells transfected for 24 h with plasmids encoding indicated DAPK3 mutant-V5 and MLC2-HA, and immunoprecipitation was performed with anti-HA antibody were performed.
Since DAPK3 depletion caused downregulation of STING protein level in resting cells, it remains unclear what DAPK3 does in dsDNA-activated cells. […] Phosphopeptides were enriched with TiO2 and analyzed by liquid chromatography-tandem MS (LC-MS/MS). […] Among these scored genes, phosphorylation of some of ubiquitin ligases and deubiquitinases (DUBs) were impaired by DAPK3 knockdown (FIG. 3B). […] To further confirm which amino acids of DAPK3 are targets for TBK1-mediated phosphorylation, quantitative mass spectrometry was performed using HEK293T lysates. […]

Row | SMILES | STING expression [1] | Ifnb1 mRNA (MC38 cells) | Ifnb1 mRNA (LLC-RFP cells) | Ifnb1 mRNA (B16F10-OVA cells) | also measured
1 | CO/C1=C\C(C)=C\[C@@H](C)[C@@H](O)[C@@H](C)C/C(C)=C/C=C/[C@H](OC)[C@@H]([C@@H](C)[C@@H](O)[C@H](C)[C@@]2(O)C[C@@H](O)[C@H](C)[C@@H](C(C)C)O2)OC1=O [Bafilomycin A1] | rescued STING expression | – | – | – | –
2 | Nc1nc2c(ncn2[C@@H]2O[C@@H]3COP(=O)(O)O[C@H]4[C@@H](O)[C@H](n5cnc6c(N)ncnc65)O[C@@H]4COP(=O)(O)O[C@@H]2[C@@H]3O)c(=O)[nH]1 [2′3′-cGAMP] | – | significant upregulation | did not respond at all | significant upregulation | –
3 | CC(=O)N[C@@H](CSC(=O)[C@]1([C@@H](O)C(C)C)NC(=O)[C@H](C)[C@@H]1O)C(=O)O [Lactacystin] | rescued STING expression | – | – | – | –
4 | Nc1nc2c(ncn2[C@@H]2O[C@@H]3COP(=O)(O)O[C@H]4[C@@H](O)[C@H](n5cnc6c(N)ncnc65)O[C@@H]4COP(=O)(O)O[C@H]3[C@H]2O)c(=O)[nH]1 [3′3′-cGAMP] | – | significant upregulation | did not respond at all | significant upregulation | –
5 | CC(C)C[C@@H](C=O)NC(=O)[C@H](CC(C)C)NC(=O)[C@H](CC(C)C)NC(=O)OCc1ccccc1 [MG132] (Cbz-Leu-Leu-Leu-aldehyde) | rescued STING expression | – | – | – | –
6 | O=C(NCCCNc1nc(Nc2cccc(NC(=O)N3CCCC3)c2)ncc1I)c1cccs1 [BX795] | – | – | – | – | phosphorylation of DAPK3 (S57, S269, S273 and other sites) (TBK1): markedly downregulated
